# Measured values taken from patent US6245917A, “Crystalline sodium phenytoin monohydrate” (Warner-Lambert Company, priority 1999, dated 2001).
# Assay: Preliminary solubility studies, ethanol versus water
# Format: physicochemical
smiles,measurement,value
O=C1NC(=O)C(c2ccccc2)(c2ccccc2)N1 [sodium phenytoin],solubility in ethanol compared with water,less soluble in ethanol than it is in water
